# Patent US11897851B2, “Heterocyclic GLP-1 agonists” (Gasherbrum Bio, Inc., priority 2021, dated 2024)
# Target: T1, GLP-1 Receptor (Homo sapiens, UniProt P43220)
# T1 construct: host or cells: HEK293/GLP1R/CRE-LUC (HEK293/CRE-Luc stably expressing the GLP-1 receptor)
# Assay: GLP-1R agonist cAMP stimulation assay (HEK293/GLP1R/CRE-LUC cells, Cisbio cAMP dynamic 2 kit);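 further: compounds tested in half-log serial dilution, cAMP detected with cAMP-d2 and anti-cAMP cryptate antibody reagents after 1 h at room temperature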
# Assay type: cell-based
# Conditions: HEK293/CRE-Luc cell line stably expressing the GLP-1 Receptor; 1000 cells/well; 30 min at 37° C.; 0.5 mM IBMX, 0.1% BSA; read-out: GLP1R cAMP Stimulation DR: EC50
# T1 sequence (P43220 24-463, species assumed): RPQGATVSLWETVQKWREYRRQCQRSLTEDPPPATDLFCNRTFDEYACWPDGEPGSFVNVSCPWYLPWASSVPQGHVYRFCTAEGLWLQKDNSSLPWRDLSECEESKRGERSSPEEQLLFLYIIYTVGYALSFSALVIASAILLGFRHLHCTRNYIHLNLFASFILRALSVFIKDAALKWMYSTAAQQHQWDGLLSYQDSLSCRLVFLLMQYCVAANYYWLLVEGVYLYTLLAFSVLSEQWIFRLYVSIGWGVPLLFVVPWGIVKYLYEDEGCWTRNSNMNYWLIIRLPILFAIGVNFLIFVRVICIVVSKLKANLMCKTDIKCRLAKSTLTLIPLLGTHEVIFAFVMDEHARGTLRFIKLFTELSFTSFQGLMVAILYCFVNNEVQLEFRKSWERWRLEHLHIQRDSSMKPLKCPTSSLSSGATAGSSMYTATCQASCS
row,Structure (SMILES),EC50 [nM]
1,"Cn1c(C(=O)O)cnc1CN1CCC(c2cccc(OCc3ccc(Cl)cc3F)n2)CC1 [Compound 101, 2-((4-(6-((4-chloro-2-fluorobenzyl)oxy)pyridin-2-yl)piperidin-1-yl)methyl)-1-methyl-1H-imidazole-5-carboxylic acid]",227
2,"Cn1c(/C=C/C(=O)O)cnc1CN1CCC(c2cccc(OCc3ccc(Cl)cc3F)n2)CC1 [Compound 104, (E)-3-(2-((4-(6-((4-chloro-2-fluorobenzyl)oxy)pyridin-2-yl)piperidin-1-yl)methyl)-1-methyl-1H-imidazol-5-yl)acrylic acid]",3.45
3,"Cn1c(-c2nn[nH]n2)cnc1CN1CCC(c2cccc(OCc3ccc(Cl)cc3F)n2)CC1 [Compound 105, 2-((4-chloro-2-fluorobenzyl)oxy)-6-(1-((1-methyl-5-(2H-tetrazol-5-yl)-1H-imidazol-2-yl)methyl)piperidin-4-yl)pyridine]",59.2
4,"COCCn1c(/C=C/C(=O)O)cnc1CN1CCC(c2cccc(OCc3ccc(Cl)cc3F)n2)CC1 [Compound 106, (E)-3-(2-((4-(6-((4-Chloro-2-fluorobenzyl)oxy)pyridin-2-yl)piperidin-1-yl)methyl)-1-(2-methoxyethyl)-1H-imidazol-5-yl)acrylic acid]",0.364
5,O=C(O)CCc1cnc(CN2CCC(c3cccc(OCc4ccc(Cl)cc4F)n3)CC2)n1CC1CCC1 [Compound 107],4.4
6,"Cn1c(C2CC2C(=O)O)cnc1CN1CCC(c2cccc(OCc3ccc(Cl)cc3F)n2)CC1 (stereo not shown) [Compound 108, 2-(2-((4-(6-((4-chloro-2-fluorobenzyl)oxy)pyridin-2-yl)piperidin-1-yl)methyl)-1-methyl-1H-imidazol-5-yl)cyclopropanecarboxylic acid]",28.2
7,"Cn1c(/C=C\C(=O)O)cnc1CN1CCC(c2cccc(OCc3ccc(Cl)cc3F)n2)CC1 [Compound 109, (Z)-3-(2-((4-(6-((4-chloro-2-fluorobenzyl)oxy)pyridin-2-yl)piperidin-1-yl)methyl)-1-methyl-1H-imidazol-5-yl)acrylic acid]",86.4
8,"C/C(=C\c1cnc(CN2CCC(c3cccc(OCc4ccc(Cl)cc4F)n3)CC2)n1C)C(=O)O [Compound 110, (E)-3-(2-((4-(6-((4-chloro-2-fluorobenzyl)oxy)pyridin-2-yl)piperidin-1-yl)methyl)-1-methyl-1H-imidazol-5-yl)-2-methylacrylic acid]",5.5
9,"Cn1c(/C=C/C(=O)O)nnc1CN1CCC(c2cccc(OCc3ccc(Cl)cc3F)n2)CC1 [Compound 112, (E)-3-(5-((4-(6-((4-chloro-2-fluorobenzyl)oxy)pyridin-2-yl)piperidin-1-yl)methyl)-4-methyl-4H-1,2,4-triazol-3-yl)acrylic acid]",2.01
10,COCCn1c(C2CC2C(=O)O)cnc1CN1CCC(c2cccc(OCc3ccc(Cl)cc3F)n2)CC1 (stereo not shown) [Compound 113],34.9
11,Cc1cc(CCC(=O)O)cnc1CN1CCC(c2cccc(OCc3ccc(Cl)cc3F)n2)CC1 [Compound 117],3300
12,"O=C(O)CCc1ccc(CN2CCC(c3cccc(OCc4ccc(Cl)cc4F)n3)CC2)nc1 [Compound 118, 3-(6-((4-(6-((4-chloro-2-fluorobenzyl)oxy)pyridin-2-yl)piperidin-1-yl)methyl)pyridin-3-yl)propanoic acid]",> 1000
13,"O=C(O)COc1ccc(CN2CCC(c3cccc(OCc4ccc(Cl)cc4F)n3)CC2)nc1 [Compound 119, 2-((6-((4-(6-((4-chloro-2-fluorobenzyl)oxy)pyridin-2-yl)piperidin-1-yl)methyl)pyridin-3-yl)oxy)acetic acid]",1500
14,"Cc1cc(/C=C/C(=O)O)cnc1CN1CCC(c2cccc(OCc3ccc(Cl)cc3F)n2)CC1 [Compound 120, (E)-3-(6-((4-(6-((4-chloro-2-fluorobenzyl)oxy)pyridin-2-yl)piperidin-1-yl)methyl)-5-methylpyridin-3-yl)acrylic acid]",99
15,"O=C(O)CCc1ccc(CN2CCC(c3cccc(OCc4ccc(Cl)cc4F)n3)CC2)c(=O)[nH]1 [Compound 121, 3-(5-((4-(6-((4-chloro-2-fluorobenzyl)oxy)pyridin-2-yl)piperidin-1-yl)methyl)-6-oxo-1,6-dihydropyridin-2-yl)propanoic acid]",> 1000
16,"CC(C)(Oc1ccc(CN2CCC(c3cccc(OCc4ccc(Cl)cc4F)n3)CC2)nc1)C(=O)O [Compound 122, 2-((6-((4-(6-((4-chloro-2-fluorobenzyl)oxy)pyridin-2-yl)piperidin-1-yl)methyl)pyridin-3-yl)oxy)-2-methylpropanoic acid]",> 1000
17,"O=C(O)/C=C/c1ccc(CN2CCC(c3cccc(OCc4ccc(Cl)cc4F)n3)CC2)nc1 [Compound 123, (E)-3-(6-((4-(6-((4-chloro-2-fluorobenzyl)oxy)pyridin-2-yl)piperidin-1-yl)methyl)pyridin-3-yl)acrylic acid]",109
18,"COc1nc(CCC(=O)O)ccc1CN1CCC(c2cccc(OCc3ccc(Cl)cc3F)n2)CC1 [Compound 124, 3-(5-((4-(6-((4-Chloro-2-fluorobenzyl)oxy)pyridin-2-yl)piperidin-1-yl)methyl)-6-methoxypyridin-2-yl)propanoic acid]",> 1000
19,"CC(Oc1ccc(CN2CCC(c3cccc(OCc4ccc(Cl)cc4F)n3)CC2)nc1)C(=O)O (stereo not shown) [Compound 125, 2-((6-((4-(6-((4-chloro-2-fluorobenzyl)oxy)pyridin-2-yl)piperidin-1-yl)methyl)pyridin-3-yl)oxy)propanoic acid]",> 1000
20,"O=C(O)C1CC1c1ccc(CN2CCC(c3cccc(OCc4ccc(Cl)cc4F)n3)CC2)nc1 (stereo not shown) [Compound 126, 2-(6-((4-(6-((4-chloro-2-fluorobenzyl)oxy)pyridin-2-yl)piperidin-1-yl)methyl)pyridin-3-yl)cyclopropane-1-carboxylic acid]",817
21,"Fc1cc(Cl)ccc1COc1cccc(C2CCN(Cc3ccc(-c4nn[nH]n4)cn3)CC2)n1 [Compound 127, 2-((4-(6-((4-chloro-2-fluorobenzyl)oxy)pyridin-2-yl)piperidin-1-yl)methyl)-5-(2H-tetrazol-5-yl)pyridine]",147
22,"O=C(O)/C=C/c1cnc(CN2CCC(c3cccc(OCc4ccc(Cl)cc4F)n3)CC2)c(CC2CCCO2)c1 (stereo not shown) [Compound 128, (E)-3-(6-((4-(6-((4-chloro-2-fluorobenzyl)oxy)pyridin-2-yl)piperidin-1-yl)methyl)-5-((tetrahydrofuran-2-yl)methyl)pyridin-3-yl)acrylic acid]",48.9
23,"Cc1cc(C(=O)O)cnc1CN1CCC(c2cccc(OCc3ccc(Cl)cc3F)n2)CC1 [Compound 129, 6-((4-(6-((4-chloro-2-fluorobenzyl)oxy)pyridin-2-yl)piperidin-1-yl)methyl)-5-methylnicotinic acid]",1500
24,"CC(Nc1ccc(CN2CCC(c3cccc(OCc4ccc(Cl)cc4F)n3)CC2)nc1)C(=O)O (stereo not shown) [Compound 130, 2-((6-((4-(6-((4-chloro-2-fluorobenzyl)oxy)pyridin-2-yl)piperidin-1-yl)methyl)pyridin-3-yl)amino)propanoic acid]",> 1000

# The next lines start with the values.
row,EC50 [nM],Structure (SMILES)
1,0.099,"C/C(=C\c1cnc(CN2CCC(c3cccc4c3O[C@@](C)(c3ccc(Cl)cc3F)O4)CC2)n1C[C@@H]1CCO1)C(=O)O (single isomer, unassigned) [Compound 131a]"
2,8.7,"C/C(=C\c1cnc(CN2CCC(c3cccc4c3O[C@](C)(c3ccc(Cl)cc3F)O4)CC2)n1C[C@@H]1CCO1)C(=O)O (single isomer, unassigned) [Compound 131b]"
3,10,"CC1(C)C[C@@H](Cn2c(/C=C/C(=O)O)cnc2CN2CCC(c3cccc4c3OC(C)(c3ccc(Cl)cc3F)O4)CC2)CO1 (single isomer, unassigned) [Compound 171a]"
4,0.0069,"C[C@]1(c2ccc(Cl)cc2F)Oc2cccc(C3CCN(Cc4ncc(/C=C/C(=O)O)n4C[C@@H]4CCS4(=O)=O)CC3)c2O1 (single isomer, unassigned) [Compound 173a]"
5,0.0014,"C[C@]1(c2ccc(Cl)cc2F)Oc2cccc(C3CCN(Cc4ncc(/C=C/C(=O)O)n4C[C@H]4CCS4(=O)=O)CC3)c2O1 (single isomer, unassigned) [Compound 173b]"
6,1.6,"O=C(O)CCc1cnc(CN2CCC(c3cccc(OCc4ccc(Cl)cc4F)n3)CC2)n1C[C@@H]1CCO1 [Compound 102a, (S)-3-(2-((4-(6-((4-chloro-2-fluorobenzyl)oxy)pyridin-2-yl)piperidin-1-yl)methyl)-1-(oxetan-2-ylmethyl)-1H-imidazol-5-yl)propanoic acid]"
7,0.093,"O=C(O)/C=C/c1cnc(CN2CCC(c3cccc(OCc4ccc(Cl)cc4F)n3)CC2)n1C[C@@H]1CCO1 [Compound 103a, (S,E)-3-(2-((4-(6-((4-chloro-2-fluorobenzyl)oxy)pyridin-2-yl)piperidin-1-yl)methyl)-1-(oxetan-2-ylmethyl)-1H-imidazol-5-yl)acrylic acid]"
8,9.4,"O=C(O)C1CC1c1cnc(CN2CCC(c3cccc(OCc4ccc(Cl)cc4F)n3)CC2)n1C[C@@H]1CCO1 (stereo partly drawn) [Compound 114a, 2-(2-((4-(6-((4-chloro-2-fluorobenzyl)oxy)pyridin-2-yl)piperidin-1-yl)methyl)-1-(((S)-oxetan-2-yl)methyl)-1H-imidazol-5-yl)cyclopropane-1-carboxylic acid]"
9,3.2,"C/C(=C\c1cnc(CN2CCC(c3cccc4c3OC[C@@H](c3ccc(Cl)cc3)O4)CC2)n1C[C@@H]1CCO1)C(=O)O [Compound 115a, (E)-3-(2-((4-((R)-2-(4-chlorophenyl)-2,3-dihydrobenzo[b][1,4]dioxin-5-yl)piperidin-1-yl)methyl)-1-(((S)-oxetan-2-yl)methyl)-1H-imidazol-5-yl)-2-methylacrylic acid]"
10,0.71,"O=C(O)/C=C/c1cnc(CN2CCC(c3cccc4c3OC[C@@H](c3ccc(Cl)cc3)O4)CC2)n1C[C@@H]1CCO1 [Compound 116a, (E)-3-(2-((4-((R)-2-(4-Chlorophenyl)-2,3-dihydrobenzo[b][1,4]dioxin-5-yl)piperidin-1-yl)methyl)-1-(((S)-oxetan-2-yl)methyl)-1H-imidazol-5-yl)acrylic acid]"
